Data from US8334255B2, “Peptide and treatment for HIV-1 infection” (Thomas Jefferson University, priority 2006, dated 2012).
Primed or numbered codes have the meaning given here. Ends that are not written are not given here. FITC′ = not defined here

Assays:
H9 and MT-2 cells = assay: Cellular uptake and intracellular localization of FITC-tagged peptide by fluorescence microscopy; assay type: cell-based
Procedure: The peptide of amino acid sequence SEQ ID NO:2 was synthesized with a C-terminal fluoroscein isothiocyanate (FTIC) tag. The FITC tag enables fluorescence microscopy of living cells in order to evaluate cellular uptake and intracellular localization of the peptide. Cultures of H9 and MT-2 cells were grown in media as recommended by the American Tissue Culture Collection (ATCC) and each culture was treated once in culture with of the FTIC-tagged peptide of the amino acid sequence SEQ ID NO:2. The cells were then photographed in the culture dish with an inverted fluorescence microscopy at various time points. […] The intracellular distribution was both punctate and diffuse in the cytoplasm but little or no FTIC-tagged peptide was observed within the nuclei of cells. This distribution was sustained for 24-48 hours and diminished by over 50% by 72 hours post-treatment.
To highlight the position of the nucleus, H9 and MT-2 cells treated with the FTIC-tagged peptide of the amino acid sequence SEQ ID NO:2 as described above, fixed with 2% paraformaldehyde, permeabilized with 0.4% Triton X-100 and stained with the DNA selective stain 4′,6-diamidino-2-phenylindole (DAPI).

HIV-1IIIB virus = assay: Low multiplicity of infection acute infection assay in MT-2 cells, reverse transcriptase assay; conditions: for delay of the onset of virus production: MT-2 cells, RT assay
HIV-1NL4-3 Viruses [1] = assay: Viral infectivity assay in peripheral blood mononuclear cells, p24 Gag ELISA; assay type: cell-based; conditions: PBMCs infected with HIV-1NL4-3, MOI 0.1; p24 antigen level by ELISA
Procedure: Various truncated analogues of the peptide of amino acid sequence SEQ ID NO:36 were prepared to determine the minimal peptide necessary to inhibit viral infectivity. The compounds were tested in a viral infectivity assay in which PBMCs were infected with HIV-1NLA-3 viruses (MOI: 0.1). The amounts of virus produced were monitored by detecting the HIV-1 p24 antigen. level in the cell culture using p24 Gag ELISA (Zeptometrics).

[2] = Physicochemical properties of the peptide (isoelectric point, solubility)
HIV-1NL4-3 Viruses [3] = assay: Viral infectivity assay in human T lymphoblastoid H9 cell line, p24 antigen ELISA; assay type: cell-based; conditions: H9 cells, MOI 0.01, peptide 50 μM, compared to untreated cells or control peptide
Procedure: A viral infectivity assay was performed in the presence or absence of the peptides of amino acid sequence SEQ ID NO:2 and SEQ ID NO:36, and the control peptide of amino acid sequence SEQ ID NO:35 using HIV-1NL4-3 viruses in H9 cells and assaying HIV-1 p24 antigen. The procedure was performed essentially as described by B. Yang, et al., J. Bio. Chem., 2003; 278(8), 6596-602, which describes the method as follows. H9 cells (1×10^6) are mixed with HIV-1NL4-3 viruses at a multiplicity of infection of 0.01. After incubation at 37° C. for 5 hours, the excess viruses were removed, and the cells are cultured in the presence of RPMI 1640 medium plus […] fetal bovine serum with or without the peptides at a concentration of 50 μM. Every 3-4 days the supernatants are harvested and refreshed. The effects of the peptides on viral infectivity are monitored by detecting the HIV-1 p24 antigen level in the cell culture supernatant via ELISA.

[4] = living H9 and MT-2 cells, single treatment

Substance: FTIC-tagged peptide of the amino acid sequence SEQ ID NO:2: peptide of amino acid sequence SEQ ID NO:2 synthesized with a C-terminal fluoroscein isothiocyanate (FTIC) tag (YGRKKRRQRRRGQGGSPLPRSV-{FITC′})
- intracellular localization (fixed cells, DAPI nuclear stain) (H9 and MT-2 cells; H9 and MT-2 cells, 24 h after a single treatment): localized in the cytoplasm but was not present in the nucleus
- diminution of intracellular peptide distribution (H9 and MT-2 cells; by 72 hours post-treatment): over 50%
- time after which fluorescence within cells was detected (H9 and MT-2 cells; [4]): 5 ninutes
- time for which the intracellular distribution was sustained (H9 and MT-2 cells; [4]): 24 to 48 h
- time until intracellular localization was apparent in all cells (H9 and MT-2 cells; [4]): ≤ 30 min
- peptide observed within the nuclei of cells (H9 and MT-2 cells; living H9 and MT-2 cells, distribution punctate and diffuse in the cytoplasm): little or no

Substance: YGRKKRRQRRRGDLGEQHFKGLVL [SEQ ID NO:35]
- effect on virus production (in words) (HIV-1IIIB virus; MOI 0.003, peptide 50 μM): somewhat enhance virus production
- effect on virus production (in words) (HIV-1IIIB virus; MOI 0.01, peptide 50 μM): did not inhibit virus production
- effect on virus production (in words) (HIV-1IIIB virus; MOI 0.03, peptide 50 μM): did not inhibit virus production
- effect on virus production (in words) (HIV-1IIIB virus; MOI 0.1, peptide 50 μM): did not inhibit virus production

Substance: YGRKKRRQRRRGGGSPLPRSV [SEQ ID NO: 74]
- Activity (inhibiting HIV-1NL4-3 viruses in viral infectivity assay) (HIV-1NL4-3 Viruses [1]): Inactive

Substance: YGRKKRRQRRRGQGGSPLPRSV [SEQ ID NO:2]
- isoelectric point (pI) [2]: 12.39
- solubility [2]: ~1000 µg/mL

Substance: YGRKKRRQRRRGSNQGGSPLPRS [SEQ ID NO: 75]
- Activity (inhibiting HIV-1NL4-3 viruses in viral infectivity assay) (HIV-1NL4-3 Viruses [1]): Inactive

Substance: YGRKKRRQRRRGSNQGGSPLPRSV [SEQ ID NO:36]
- effect on virus production (in words) (HIV-1IIIB virus; MOI 0.003, peptide 50 μM): did not appear to have any effect upon virus production
- delay of the onset of virus production (HIV-1IIIB virus; MOI 0.01, peptide 50 μM): 3 to 4 days
- delay of the onset of virus production (HIV-1IIIB virus; MOI 0.03, peptide 50 μM): 2 to 3 days
- delay of the onset of virus production (HIV-1IIIB virus; MOI 0.1, peptide 50 μM): 4 to 5 days
- effect on viral replication (HIV-1 p24 antigen in supernatant) (HIV-1NL4-3 Viruses [3]): inhibited viral replication
